pIC50: −log10 of the molar value. Calls of active or inactive are those of the source. The rule behind the calls is not given here.
Columns and labels:
[1] = biological target: T1, Histone deacetylase 7 (Homo sapiens, UniProt Q8WUI4); assay: Inhibition of HDAC7 in human HeLa nuclear extracts incubated for 30 mins by fluorescence based assay; format: cell-free
T1 sequence (Q8WUI4 whole entry): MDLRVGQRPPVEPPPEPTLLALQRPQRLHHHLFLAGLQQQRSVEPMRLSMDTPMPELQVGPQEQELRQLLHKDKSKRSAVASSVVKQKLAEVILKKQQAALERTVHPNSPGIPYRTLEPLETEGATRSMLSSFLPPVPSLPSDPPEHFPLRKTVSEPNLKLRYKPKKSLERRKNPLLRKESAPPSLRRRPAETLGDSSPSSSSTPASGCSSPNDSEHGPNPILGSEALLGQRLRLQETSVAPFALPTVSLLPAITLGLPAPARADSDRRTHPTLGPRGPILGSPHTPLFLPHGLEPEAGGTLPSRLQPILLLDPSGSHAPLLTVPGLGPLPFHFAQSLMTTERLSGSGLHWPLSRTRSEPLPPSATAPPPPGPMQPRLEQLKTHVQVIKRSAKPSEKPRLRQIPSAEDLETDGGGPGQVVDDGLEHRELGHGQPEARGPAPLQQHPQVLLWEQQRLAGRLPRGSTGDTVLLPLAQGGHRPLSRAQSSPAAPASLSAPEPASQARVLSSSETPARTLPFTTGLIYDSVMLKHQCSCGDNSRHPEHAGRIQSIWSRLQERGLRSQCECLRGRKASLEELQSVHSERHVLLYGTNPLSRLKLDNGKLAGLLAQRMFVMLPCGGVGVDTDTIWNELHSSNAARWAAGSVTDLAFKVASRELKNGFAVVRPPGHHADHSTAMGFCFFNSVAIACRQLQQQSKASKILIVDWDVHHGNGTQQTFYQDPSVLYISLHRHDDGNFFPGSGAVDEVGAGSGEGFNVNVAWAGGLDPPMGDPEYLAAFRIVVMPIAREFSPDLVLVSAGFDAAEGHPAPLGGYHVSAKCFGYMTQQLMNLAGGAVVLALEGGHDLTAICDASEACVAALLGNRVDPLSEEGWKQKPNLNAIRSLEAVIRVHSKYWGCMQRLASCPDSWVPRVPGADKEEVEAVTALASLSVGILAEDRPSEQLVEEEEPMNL

[2] = biological target: T2, Tubulin (Homo sapiens) (UniProt P68371+Q9H4B7+P0DPH7+P68366+Q13509+Q71U36+P04350+Q3ZCM7+P07437+P68363+Q9BQE3+Q6PEY2+Q13885+Q9BVA1+Q9BUF5); assay: Binding affinity to tubulin colchicine binding site in human PC-3 cells assessed as reduction in beta-tubulin adduct formation at 5 uM preincubated for 2 hrs followed by EBI addition and measured after 1.5 hrs by Western blotting assay; format: cell-based; parameters: scale not given: the % may be the effect or the level left; details: time 3.5 hrs
[3] = biological target: T2, Tubulin (Homo sapiens); assay: Inhibition of microtubule polymerization in human PC-3 cells assessed as disorganized microtubule filaments at 0.32 uM incubated for 6 hrs by immunofluorescent staining based confocal microscopy assay; format: cell-based
[4] = biological target: Histone deacetylase 1 (Homo sapiens, UniProt Q13547); assay: Inhibition of HDAC1 in human PC-3 cells assessed as increase in acetylated Histone-H3 level incubated for 24 hrs by Western blotting assay; format: cell-based; details: dose 0.08-0.32 µM
[5] = test system: PC-3; assay: Induction of cell cycle arrest in human PC-3 cells assessed as S phase cells at 0.08 uM incubated for 24 hrs by PI staining based flow cytometry analysis (reference value: 31.7%); format: functional
[6] = test system: PC-3; assay: Induction of cell cycle arrest in human PC-3 cells assessed as S phase cells at 0.32 uM incubated for 24 hrs by PI staining based flow cytometry analysis (reference value: 31.7%); format: functional
[7] = test system: PC-3; assay: Induction of cell cycle arrest in human PC-3 cells assessed as decrease in phosphorylated Cdc25c at Ser216 by Western blotting analysis; format: functional, cell-based; details: dose 0.08-0.32 µM
[8] = test system: PC-3; assay: Induction of cell cycle arrest in human PC-3 cells assessed as increase in cyclin B1 level at 0.08 to 0.32 uM by Western blotting analysis; format: functional, cell-based; details: dose 0.08-0.32 µM
[9] = test system: PC-3; assay: Induction of apoptosis in human PC-3 cells assessed as viable cells at 0.08 uM incubated for 24 hrs by Annexin V-FITC and PI staining based flow cytometry (reference value: 97.5%); format: functional; details: read-out: Activity
[10] = test system: PC-3; assay: Induction of apoptosis in human PC-3 cells assessed as necrotic cells at 0.08 uM incubated for 24 hrs by Annexin V-FITC and PI staining based flow cytometry (reference value: 0.13%); format: functional
[11] = test system: PC-3; assay: Induction of apoptosis in human PC-3 cells assessed as late apoptotic cells at 0.32 uM incubated for 24 hrs by Annexin V-FITC and PI staining based flow cytometry (reference value: 1.02%); format: functional
[12] = test system: PC-3; assay: Induction of apoptosis in human PC-3 cells assessed as upregulation of cleaved PARP expression at 0.08 to 0.32 uM by Western blotting analysis; format: functional, cell-based; details: dose 0.08-0.32 µM
[13] = test system: PC-3; assay: Induction of mitochondrial membrane potential loss in human PC-3 cells assessed as decrease in JC-1 aggregate level by measuring red fluorescence intensity at 0.32 uM incubated for 24 hrs by JC-1 staining based flow cytometry analysis (reference value: 93.5%); format: functional; parameters: scale not given: the % may be the effect or the level left
[14] = test system: PC-3; assay: Induction of mitochondrial membrane potential loss in human PC-3 cells incubated for 24 hrs by JC-1 staining based flow cytometry analysis; format: functional, cell-based; details: dose 0.08-0.32 µM
[15] = test system: PC-3; assay: Induction of ROS generation in human PC-3 cells at 0.32 uM incubated for 24 hrs by DCFH-DA staining based flow cytometry analysis (reference value: 2.63%); format: functional
[16] = test system: A549; assay: Inhibition of cell migration in human A549 cells at 0.4 to 1.6 uM incubated for 24 hrs by crystal violet staining based transwell method; format: functional; details: dose 0.4-1.6 µM
[17] = test system: PC-3; assay: Antitumor activity against human PC-3 cells xenografted in iv dosed BALB/c nude mouse assessed as tumor growth inhibition administered every 2 days and measured after 3 weeks; format: functional, organism-based; details: dose 10-20 mg/kg
[18] = test system: PC-3; assay: Antitumor activity against human PC-3 cells xenografted in BALB/c nude mouse assessed as tumor growth inhibition at 20 mg/kg, iv administered every 2 days and measured after 3 weeks; format: functional; details: PC-3, 48 h, time 2 day, read-out: TGI
[19] = Toxicity in BALB/c nude mouse xenografted with human PC-3 cells assessed as heart damage at 10 to 20 mg/kg, iv administered every 2 days and measured after 3 weeks; format: organism-based; details: in vivo, 504 h, dose 10-20 mg/kg
[20] = Toxicity in BALB/c nude mouse xenografted with human PC-3 cells assessed as liver damage at 10 to 20 mg/kg, iv administered every 2 days and measured after 3 weeks; format: organism-based; details: in vivo, 504 h, dose 10-20 mg/kg
[21] = Toxicity in BALB/c nude mouse xenografted with human PC-3 cells assessed as kidney damage at 10 to 20 mg/kg, iv administered every 2 days and measured after 3 weeks; format: organism-based; details: in vivo, 504 h, dose 10-20 mg/kg
[22] = Half-life in Sprague-Dawley rat at 2 mg/kg, iv measured upto 24 hrs by HPLC-MS analysis; format: ADME, organism-based; details: in vivo
[23] = Volume of distribution at steady state in Sprague-Dawley rat at 2 mg/kg, iv measured upto 24 hrs by HPLC-MS analysis; format: ADME, organism-based; details: in vivo, read-out: Vdss
[24] = AUC(0 to t) in Sprague-Dawley rat at 2 mg/kg, iv measured upto 24 hrs by HPLC-MS analysis; format: ADME, organism-based; details: in vivo

Histone deacetylase 1, sequence (Q13547 whole entry): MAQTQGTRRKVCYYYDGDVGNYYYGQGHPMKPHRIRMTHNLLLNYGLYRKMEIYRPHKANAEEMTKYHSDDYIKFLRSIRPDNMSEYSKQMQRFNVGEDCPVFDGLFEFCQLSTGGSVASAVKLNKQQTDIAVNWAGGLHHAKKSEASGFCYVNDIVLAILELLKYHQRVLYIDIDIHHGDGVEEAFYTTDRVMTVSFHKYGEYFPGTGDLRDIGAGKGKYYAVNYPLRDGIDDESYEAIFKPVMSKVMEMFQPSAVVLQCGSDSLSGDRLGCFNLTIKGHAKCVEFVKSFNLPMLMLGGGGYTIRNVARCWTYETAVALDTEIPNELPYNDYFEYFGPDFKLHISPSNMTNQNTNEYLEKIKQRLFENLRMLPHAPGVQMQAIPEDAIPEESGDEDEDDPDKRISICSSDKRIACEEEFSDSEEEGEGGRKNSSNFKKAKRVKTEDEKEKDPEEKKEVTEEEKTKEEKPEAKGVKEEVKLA

pIC50 [1]: 5.63 | Activity [2]: 100% | inhibition [3]: Active | inhibition [4]: Dose-Dependent Effect | half-life [22]: 54.6 min | Vd [23]: 0.42 L/kg | AUCt [24]: 9084 µg/L/h
Structure (SMILES): COc1ccc(/C=C/C(=O)c2ccc(OC)c3c2OC(C)(C)C=C3)cc1NCC(=O)NO
Activity [5]: 39.9% | Activity [6]: 10.6% | Activity [7]: Active | Activity [8]: Active | viability at 0.08 µM [9]: 94.8% | Activity [10]: 0.041% | Activity [11]: 8.39% | Activity [12]: Active | Activity [13]: 58.9% | Activity [14]: Dose-Dependent Effect | Activity [15]: 83.1% | inhibition [16]: Active | Activity [17]: Dose-Dependent Effect | inhibition in vivo at 20 mg/kg [18]: 90.1% | Activity [19]: Non-Toxic | Activity [20]: Non-Toxic | Activity [21]: Non-Toxic
